The nature of data set [1]: Fluorescence characterization of fluorescent molecules (excitation and emission wavelengths). The class given is physicochemical. The settings on record: fluorescent molecule, Table 1. The source says: 1-Naphthylethylenediamine of Chemical Formula I can be effectively detected by LED (light-emitting diode), and used as a fluorescent probe. In addition, because this compound has an excitation wavelength of 340 nm to 380 nm and an emission wavelength of 400 nm to 600 nm, it has longer emission wavelength than the known fluorophores, and therefore, it can be detected as a fluorescent molecule distinct from the cellular autofluorescence.
The excitation and emission wavelengths of the fluorescent molecules of the present invention, that is, the compounds represented by Chemical Formulae I to XXII are described in Table 1, and graphs showing the fluorescent characteristics thereof are given in FIGS. 3 to 15.

Data set [2] is described as follows: Fluorescence of the iFRET probe alone. It counts as physicochemical. The conditions noted are these: for fluorescence emission wavelength of probe alone: excitation / UV irradiation at 280 nm. From the text: After excitation at 260, 280, 340, and 360 nm, the emitted fluorescence spectra were examined. […]
(§1) As in FIG. 23 showing the result of using the compound of Chemical Formula XXV as a probe for iFRET, the probe itself emitted low fluorescence (blue line) at 430 nm by UV irradiation at 280 nm; the protein (streptavidin) emitted fluorescence (green line) at 340 nm by UV irradiation at 280 nm.
As in FIG. 24 showing the result of using the compound of Chemical Formula XXVI as a fluorescent probe, the probe itself emitted low fluorescence (blue line) at 460 nm by UV irradiation at 280 nm; the protein (streptavidin) emitted fluorescence (green line) at 340 nm by UV irradiation at 280. […] Further, it was confirmed that the fluorescence increasing rate at the above emission wavelength was 600% or more, indicating production of effective iFRET signals. […]

The conditions of data set [3]: value used for calculation; cited from earlier work.
Data set [4] deals with T1, streptavidin (Streptomyces avidinii, UniProt P22629). As to the kind of experiment: iFRET detection of streptavidin with biotin-conjugated probes. It counts as binding. The conditions noted are these: UV irradiation at 280 nm.
T1 sequence (P22629 25-183): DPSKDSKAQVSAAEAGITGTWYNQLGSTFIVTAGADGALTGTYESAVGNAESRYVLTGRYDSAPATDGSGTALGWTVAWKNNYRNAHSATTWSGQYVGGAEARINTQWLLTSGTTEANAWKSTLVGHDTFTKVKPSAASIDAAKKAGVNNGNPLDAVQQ
Source text: The results of detecting streptavidin using Compounds of Chemical Formulae XXV to XXVIII as probes for iFRET are shown in FIGS. 23 to 26.
as §1
As in FIG. 24 showing the result of using the compound of Chemical Formula XXVI as a fluorescent probe, the probe itself emitted low fluorescence (blue line) at 460 nm by UV irradiation at 280 nm; the protein (streptavidin) emitted fluorescence (green line) at 340 nm by UV irradiation at 280. […] Further, it was confirmed that the fluorescence increasing rate at the above emission wavelength was 600% or more, indicating production of effective iFRET signals.
Because the compound of Chemical Formula XXVII emitted fluorescence at the longer wavelength than the known iFRET probe, signal-to-noise ratio is […] during real-time cell imaging, thereby providing more clear images.
In order to examine target specificity of the probe having Chemical Formula XXVIII, the probe was exposed to BSA to examine whether iFRET signals were produced by binding of the probe to BSA. […] Therefore, it was confirmed that the biotin-conjugated iFRET fluorescent probe of the present invention selectively binds to streptavidin to produce iFRET signals.

The nature of data set [5]: Quantum yield measurement. It counts as physicochemical. The settings on record: 0.1 M pH 10.0 phosphate buffer, standard 4-methyl-umbelliferone. Here is the method: (§2) The quantum yield of each compound was measured in 0.1 M pH 10.0 phosphate buffer. 4-methyl-umbelliferone (ΦF 0.63) was used as a standard material, tryptophan (ΦF=0.12) was used as an FRET donor to calculate the quantum yield. FRET efficiency was calculated based on the results measured in PBS buffer at pH 7.4, and fluorescence was measured using an LS55 fluorescence spectrometer manufactured by Perkin Elmer.

Data set [6] addresses T1, streptavidin. Nature of the data set: FRET efficiency and Forster distance of biotin-conjugated probes. The class given is binding. The settings on record: between iFRET probe and streptavidin. Here is the method:
as §2

Molecules are shown by their SMILES.

Turning to `CC(C)(C)OC(=O)NCCNC(=O)/C=C/c1cc2ccc(O)cc2oc1=O` [Chemical Formula XI, tert-butyl 2-(3-(7-hydroxy-2-oxo-2H-chromen-3-yl)acrylamido)ethylcarbamate], in data set [1], the “Emission wavelength (nm)” value was determined as 480 nm and the “Excitation wavelength (nm)” value is recorded as 380-420 nm.
The matching figures for `COc1ccc2cc(C(=O)O)c(=O)oc2c1` [Chemical Formula XVI]: 390 nm and 330 nm.
`CCN(CC)c1ccc2cc(C(=O)n3ccnc3)c(=O)oc2c1` [Chemical Formula XVIII]: in data set [1], the “Emission wavelength (nm)” value was determined as 470 nm and the “Excitation wavelength (nm)” value was 400 nm.
With `COC(=O)C1=CN(C)C=C(C(=O)O)C1C=C(C)C` (centres unmarked) [Chemical Formula VII, 5-(methoxycarbonyl)-1-methyl-4-(2-methyl-1-propenyl)-1,4-dihydropyridine-3-carboxylic acid], in data set [1], the “Emission wavelength (nm)” value was found to be 450 nm and the “Excitation wavelength (nm)” value is given as 380 nm.
The matching figures for `COC(=O)C1=CN(C)C=C(C(=O)OC)C1C=C(C)C` [Chemical Formula VI, dimethyl 1-methyl-4-(2-methyl-1-propenyl)-1,4-dihydropyridine-3,5-dicarboxylate]: 450 nm and 390 nm.
The corresponding values for `CCOC(=O)Cc1cc(=O)oc2cc(N(C)C)ccc12` [Chemical Formula XX, ethyl 2-(7-(dimethylamino)-2-oxo-2H-chromen-4-yl)acetate] are 490 nm and 370 nm.
With `COC(=O)CCC(NC(=O)C(CC(=O)OC)NC(=O)CCC(=O)NCCNc1cccc2ccccc12)C(=O)N[C@@H](C(=O)NC(CC(=O)OC)C(=O)C(F)(F)F)C(C)C` (stereo partly drawn) [Chemical Formula XXXII, N-(1-naphthyl)ethyleneamide-4-butaneamide-Asp(CO2Me)-L-Glu(CO2Me)-L-Val-Asp(CO2Me)-(ketone)-CF3], the “fluorescence emission wavelength of probe” value in data set [2] came to 430 nm.
Turning to `O=C(O)/C=C/c1cc2ccc(O)cc2oc1=O` [Chemical Formula IX, 3-(7-hydroxy-2-oxo-2H-chromen-3-yl)acrylic acid], in data set [1], the “Emission wavelength (nm)” value is given as 480 nm and the “Excitation wavelength (nm)” value was 370-380 nm.
`N[C@@H](Cc1c[nH]c2ccccc12)C(=O)O` [tryptophan]: the “quantum yield ΦF of standard material / FRET donor” value in data set [3] is 0.12.
For the molecule `COC(=O)CC1C(C(=O)OC)=CN(C)C=C1C(=O)OC` [Chemical Formula VIII, dimethyl 4-(2-methoxy-2-oxoethyl)-1-methyl-1,4-dihydropyridine-3,5-dicarboxylate], in data set [1], the “Emission wavelength (nm)” value came to 450 nm and the “Excitation wavelength (nm)” value came to 370 nm.
The matching figures for `NCCNc1cccc2ccccc12` [Chemical Formula I, 1-naphthylethylenediamine]: 430 nm and 340 nm.
The corresponding values for `COC(=O)C1=CN(C)C=CC1(C)C` [Chemical Formula II, methyl 1,4,4-trimethyl-1,4-dihydropyridine-3-carboxylate] are 450 nm and 360 nm.
The matching figures for `Cc1ccc2cc(C(=O)O)c(=O)oc2c1` [Chemical Formula XIII]: 450 nm and 400 nm.
In the case of `Cc1cc(=O)oc2cc(O)ccc12` [4-methyl-umbelliferone], in data set [3], the “quantum yield ΦF of standard material / FRET donor” value is 0.63.
For the molecule `COC(=O)/C=C/c1cc2ccc(O)cc2oc1=O` [Chemical Formula X, methyl 3-(7-hydroxy-2-oxo-2H-chromen-3-yl)acrylate], in data set [1], the “Emission wavelength (nm)” value came out at 510 nm and the “Excitation wavelength (nm)” value is on record as 430 nm.
As for `COC(=O)C1=CN(C)C=C(C(=O)O)C1` [Chemical Formula IV, 5-(methoxycarbonyl)-1-methyl-1,4-dihydropyridine-3-carboxylic acid], in data set [1], the “Emission wavelength (nm)” value is reported as 480 nm and the “Excitation wavelength (nm)” value is 390-400 nm.
With `O=C(/C=C/c1cc2ccc(O)cc2oc1=O)NCCNC(=O)CCCC[C@@H]1SC[C@@H]2NC(=O)N[C@@H]21` [Chemical Formula XXVII, N-((E)-7-hydroxycoumarin-3-acryl)-N′-(biotinyl)ethylenediamide], at streptavidin [4], the “fluorescence / iFRET signal of mixture of probe and streptavidin” value (“fluorescence / iFRET signal” for short) is on record as “increased fluorescence at 480 nm”. Also, the “Quantum yield (ΦF)” value in data set [5] is listed as 0.105. The “R0 (Fōrster distance)” value at streptavidin [6] stood at 2.161 nm.
Turning to `CCOC(=O)Cc1cc(=O)oc2cc(N(CC)CC)ccc12` [Chemical Formula XXII, ethyl 2-(7-(diethylamino)-2-oxo-2H-chromen-4-yl)acetate], in data set [1], the “Emission wavelength (nm)” value was 450 nm and the “Excitation wavelength (nm)” value is 370 nm.
As to `CC(C)(C)OC(=O)Nc1ccc2cc(/C=C/C(=O)O)ccc2c1` [Chemical Formula XV], in data set [1], the “Emission wavelength (nm)” value is 450 nm and the “Excitation wavelength (nm)” value came out at 330 nm.
The matching figures for `COC(=O)C1=C(C)N(Cc2ccccc2)C=CC1(C)C` [Chemical Formula V, methyl 1-benzyl-2,4,4-trimethyl-1,4-dihydropyridine-3-carboxylate]: 430 nm and 330 nm.
The corresponding values for `Cc1cc(=O)oc2cc(O)ccc12` [Chemical Formula XIV] are 450 nm and 370 nm.
The matching figures for `CN(C)c1ccc2c(CC(=O)O)cc(=O)oc2c1` [Chemical Formula XXI, 2-(7-(dimethylamino)-2-oxo-2H-chromen-4-yl)acetic acid]: 480 nm and 370 nm.
`CN(C)c1cccc2c(S(=O)(=O)Cl)cccc12` [Chemical Formula XIX]: in data set [1], the “Emission wavelength (nm)” value is listed as 520 nm and the “Excitation wavelength (nm)” value came to 340 nm.
Regarding `O=C(CCCC[C@@H]1SC[C@@H]2NC(=O)N[C@@H]21)NCCNc1cccc2ccccc12` [Chemical Formula XXV, N-biotinyl N′-(1-naphthyl)ethylenediamine], the “fluorescence / iFRET signal” value at streptavidin [4] was “increased fluorescence at 430 nm”. For the same molecule, in data set [5], the “Quantum yield (ΦF)” value came to 0.7. For the same molecule, at streptavidin [6], the “R0 (Fōrster distance)” value was determined as 1.837 nm. Further, the “fluorescence emission wavelength of probe alone” value in data set [2] turned out to be 430 nm.
For the molecule `O=C(CCCCC1SCC2NC(=O)NC21)NCCNC(=O)Cc1cc(=O)oc2cc(O)ccc12` (centres unmarked) [Chemical Formula XXVI, N-(7-hydroxycoumarin-4-acetyl)-N′-(biotinyl)ethylenediamine], the “fluorescence / iFRET signal” value on streptavidin [4] is listed as “increased fluorescence at 460 nm”. Further, the “fluorescence increasing rate at emission wavelength 460 nm” value on streptavidin [4] (mixture of probe and streptavidin) was no less than 600%. The “Quantum yield (ΦF)” value in data set [5] turned out to be 0.7. At streptavidin [6], the “R0 (Fōrster distance)” value is listed as 1.675 nm. Moreover, the “fluorescence emission wavelength of probe alone” value in data set [2] amounted to 460 nm.

These data come from patent US20140242606A1, “PROBE FOR iFRET AND USE THEREOF” (KOREA RESEARCH INSTITUTE OF BIOSCIENCE AND BIOTECHNOLOGY, priority 2011, published 2014).
